Experimental data taken from US10266527B2, “T-box riboswitch-binding anti-bacterial compounds” (THE RESEARCH FOUNDATION FOR THE STATE UNIVERSITY OF NEW YORK, priority 2013, dated 2019).
Converted amounts (≈) assume the structure as drawn. Read-outs that look alike come from different tables or passages of the source.

Tests used:
Assay type in all cases: cell-based
E. coli ATCC 25922 [1] = test: Broth microdilution MIC (Gram negative specificity control); conditions: for MIC: Escherichia coli, ATCC25922
S. aureus = test: Disc diffusion assay (DDA) of PKZ6 and PKZ18 analogs with S. aureus; conditions: Table 4, 150 μg/ml, ✓ = zone of inhibition observed
Excerpt: (§1) The identity and purity of both PKZ 6 and 18 was confirmed by mass spectroscopy. Forty commercially available compounds chosen on the basis of initial in silico selections and similarity to our two hits were screened by disc diffusion assay (DDA) to determine their relative antibacterial activity with S. aureus. […] These 14 compounds were further evaluated by minimum inhibitory concentration assays (MIC)^41,42, and minimum bactericidal assays (MBC)^41 to confirm antibacterial activity, determine the concentration at which S. aureus growth is inhibited in liquid culture (MIC) and if they are acting as bacteriostatic or bactericidal agents (MBC). […] Representative embodiments are shown below.
All compounds were tested at a concentration of 150 μg/ml.

S. aureus ATCC 29213 [2] = test: Broth microdilution MIC
Excerpt: as §1
(§2) Broth microdilution assays^77, 78 were performed with B. subtilis, and S. aureus to determine the lowest compound concentration inhibiting visible growth, i.e., minimum inhibitory concentration (MIC) of the 4 original compounds. […] The insolubility of the fourth compound may account for its lack of antibacterial activity. […] The MICs of each compound are moderate.
(§3) Strains were grown on trypticase soy agar (TSA) with 5% sheep blood at 37° C. for 24 hours. Five isolated colonies were used to inoculate 5 mL cation-adjusted Mueller-Hinton broth (CAMHB) contained in a 50 mL centrifuge tube. The resulting culture was incubated shaking at 200 rpm for 3 hours at 37° C. and then diluted in CAMHB until its turbidity matched that of a 0.5 McFarland standard (OD625 0.08-0.10). After the culture had been standardized against a 0.5 McFarland standard, it was diluted 1:10 in CAMHB and then 5 μL of this dilution was added to the appropriate wells of a 96-well, flat-bottomed tissue culture plate in which each row contained a twofold dilution series of a particular compound ranging in concentration from 0.25 μg/mL to 512 μg/mL. Each plate also included a sterility control well containing CAMHB to which standardized inoculum was not added and a growth control well containing CAMHB to which 5 μL standardized inoculum was added. […] With the exception of the sterility control well, all wells were inoculated within 15 minutes of inoculum preparation to ensure that the starting concentration of bacteria in each well was approximately 5×10^5 CFU/m L. A Tecan Sunrise microplate absorbance reader was used to measure the OD620 of each well before and after 20 h incubation at 37° C. MIC values were recorded as the lowest compound concentration at which no visible growth was observed after this incubation period.

E. coli ATCC 25922 [3] = test: MBC determination; conditions: for E. coli (MBC): Table 5 analogs, triplicate experiments, N/O = not observed at concentrations tested (512-0.25 μg/mL)
Protocol: (§4) Following 24 h incubation of these subcultures at 37° C., MBC values were recorded as the lowest compound concentration at which no viable colonies were observed.

S. aureus ATCC 29213 [4] = test: MBC determination; conditions: Table 5 analogs, triplicate experiments, N/O = not observed at concentrations tested (512-0.25 μg/mL)
Excerpt: as §1, §4

B. cereus ATCC 7064 [5] = test: Broth microdilution MIC; conditions: Bacillus cereus, ATCC7064; B. cereus ATCC 7064; read-out: MIC
E. faecalis ATCC 29212 [6] = test: Broth microdilution MIC; conditions: Enterococcus faecalis, ATCC29212, N/O = not observed, read-out: MIC
B. subtilis = test: Disc diffusion assay, growth inhibition of B. subtilis; conditions: Table 1, ✓ = zone of inhibition observed
Excerpt: The same 20 top binders and 8 additional predicted to interact with the cleft of the tyrRS mRNA Specifier Loop were selected from subsequent docking and preliminary fluorescence data.

B. subtilis BGSC 1A1 [7] = test: Broth microdilution MIC
Protocol: as §2, §3

P. aeruginosa ATCC 27853 = test: Broth microdilution MIC; conditions: N/O = not observed
S. pneumoniae ATCC 49619 = test: Broth microdilution MIC; conditions: Streptococcus pneumoniae, ATCC49619; S. pneumoniae ATCC 49619; read-out: MIC
[8] = tested on: Human Embryonic Kidney (HEK293) cells; test: Toxicity on a monolayer of HEK293 cells
E. faecalis ATCC 29212 [9] = test: MBC determination; conditions: N/O = not observed
Protocol: as §4

B. subtilis BGSC 1A1 [10] = test: MBC determination; conditions: IND = indeterminate
Protocol: as §4

B. cereus ATCC 7064 [11] = test: MBC determination; conditions: N/O = not observed
Protocol: as §4

[12] = Table 5 analogs, triplicate experiments, N/O = not observed at concentrations tested (512-0.25 μg/mL), read-out: E. coli MIC
[13] = Staphylococcus aureus, ATCC29213, Table 5 analogs, triplicate experiments, N/O = not observed at concentrations tested (512-0.25 μg/mL), read-out: S. aureus MIC

In the case of `O=C(NCCN1CCNCC1)c1c(O)c2ccccc2[nH]c1=O` [Compound 0607], the MIC (E. coli ATCC 25922 [1]; [12]) is reported as 256 µg/mL (≈ 809 µM), the ZOI observed (S. aureus) is reported as “✓” and the MIC (S. aureus ATCC 29213 [2]; [13]) is reported as 512 µg/mL (≈ 1620 µM). For the same molecule, the “E. coli (MBC)” value (E. coli ATCC 25922 [3]) was “N/O” and the “S. aureus (MBC)” value (S. aureus ATCC 29213 [4]) was “N/O”.
`O=C(O)C1C2CCC(C2)C1C(=O)Nc1nc(-c2ccc(F)cc2F)cs1` (stereo not shown) [Compound 1819] was tested, and the ZOI observed (S. aureus) was “✓”, the MIC (S. aureus ATCC 29213 [2]; [13]) was 128 µg/mL (≈ 338 µM) and the MBC (S. aureus ATCC 29213 [4]; Staphylococcus aureus, ATCC29213, read-out: S. aureus (MBC)) was 512 µg/mL (≈ 1350 µM).
For `O=c1cc(O)c2c(=O)n3c4c(cccc4c2o1)CCC3` [Compound 0611], the ZOI observed (S. aureus) was “✓”.
With `CC(C)CCNC(=O)c1c(O)n2c3c(cccc3c1=O)CCC2` [Compound 0603] the MIC (E. coli ATCC 25922 [1]; [12]) was 512 µg/mL (≈ 1630 µM), the ZOI observed (S. aureus) was “✓” and the MIC (S. aureus ATCC 29213 [2]; [13]) was 512 µg/mL (≈ 1630 µM). The “E. coli (MBC)” value (E. coli ATCC 25922 [3]) was “N/O” and the “S. aureus (MBC)” value (S. aureus ATCC 29213 [4]) was “N/O”.
With `CCn1c(=O)c(C(=O)NCCN2CCNCC2)c(O)c2ccccc21` [Compound 7] the “antibacterial activity against E. coli (in words)” value (E. coli ATCC 25922 [1]; E. coli negative control without T-box riboswitch) was “moderate antibacterial activity”, the MIC (E. coli ATCC 25922 [1]; E. coli ATCC 25922, N/O = not observed, read-out: MIC) was 512 µg/mL (≈ 1490 µM) and the MIC (B. cereus ATCC 7064 [5]) was 512 µg/mL (≈ 1490 µM). For the same molecule, the MIC (E. faecalis ATCC 29212 [6]) was 512 µg/mL (≈ 1490 µM), the ZOI observed (B. subtilis) was “✓” and the “antibacterial activity against B. subtilis (in words)” value (B. subtilis BGSC 1A1 [7]) was “active”. For the same molecule, the MIC (B. subtilis BGSC 1A1 [7]; Bacillus subtilis, BGSC1A1, B. subtilis BGSC 1A1, 20 h at 37° C., read-out: MIC) was 32 µg/mL (≈ 92.9 µM), the MIC (P. aeruginosa ATCC 27853) was “N/O (N/D)” and the MIC (S. aureus ATCC 29213 [2]; S. aureus ATCC 29213, N/O = not observed) was “N/O (N/D)”. For the same molecule, the MIC (S. pneumoniae ATCC 49619) was 128 µg/mL (≈ 372 µM), the “16 hr post exposure % Live” value ([8]; 32 ug/ml) was 100% and the “16 hr post exposure Morphology” value ([8]; 32 ug/ml) was “Normal”. The “24 hr post exposure % Confluent” value ([8]; 32 ug/ml) was 90%, the “24 hr post exposure % Live” value ([8]; 32 ug/ml) was 90% and the “24 hr post exposure Morphology” value ([8]; 32 ug/ml) was “Normal”. For the same molecule, the “16 hr post exposure % Live” value ([8]; 64 ug/ml) was 80%, the “16 hr post exposure Morphology” value ([8]; 64 ug/ml) was “Mix of Normal and Detached” and the “24 hr post exposure % Confluent” value ([8]; 64 ug/ml) was 80%. For the same molecule, the “24 hr post exposure % Live” value ([8]; 64 ug/ml) was 75%, the “24 hr post exposure Morphology” value ([8]; 64 ug/ml) was “Mix of Normal and Detached” and the “16 hr post exposure % Live” value ([8]; 128 ug/ml) was 0%. For the same molecule, the “16 hr post exposure Morphology” value ([8]; 128 ug/ml) was “Rounded and Detached”, the “24 hr post exposure % Confluent” value ([8]; 128 ug/ml) was 0% and the “24 hr post exposure % Live” value ([8]; 128 ug/ml) was 0%. The “24 hr post exposure Morphology” value ([8]; 128 ug/ml) was “Rounded and Detached”, the MBC (E. faecalis ATCC 29212 [9]) was “N/O” and the MBC (B. subtilis BGSC 1A1 [10]) was “IND”. The MBC (B. cereus ATCC 7064 [11]) was “N/O” and the MBC (E. coli ATCC 25922 [3]; Escherichia coli, ATCC25922, E. coli ATCC 25922, read-out: MBC) was 512 µg/mL (≈ 1490 µM).
With `CCCCc1ccc(-c2nc(NC(=O)C3CC=CCC3C(=O)O)sc2C)cc1` (stereo not shown) [Compound 1805] the ZOI observed (S. aureus) was “✓”.
`O=C(NCCNCCO)c1c(O)c2cccc3c2n(c1=O)CCC3` [Compound 0609] was tested, and the ZOI observed (S. aureus) was “✓”.
In the case of `NCCNC(=O)c1c(O)c2cccc3c2n(c1=O)CCC3` [Compound 0615], the ZOI observed (S. aureus) is reported as “✓”.
